Assay results reported in patent publication US12503448B2, “Antibacterial and antiparasitic quinoxaline-2,3-diamine derivatives” (University College Cardiff Consultants Limited, priority 2019, dated 2025).
Converted amounts (≈) assume the structure as drawn. Read-outs that look alike come from different tables or passages of the source.

Experiments:
[1] = test system: F. hepatica newly excysted juveniles (NEJs); experiment: Newly excysted juveniles (NEJs) drug screen; type: cell-based, Fasciola hepatica; design: scale not given here; conditions: 10 μM, 72 h; higher score indicates lower worm activity
Procedure: Newly Excysted Juveniles (NEJs) Drug Screen
F. hepatica (Italian strain) metacercariae were obtained from Ridgeway Research, Gloucestershire, UK and stored at 4° C. Newly excysted juveniles (NEJs) from metacercariae were produced based on an optimisation introduced to the excystment method published by Dixon et al. and Wilson et al (Dixon, K. E., The physiology of excystment of the metacercaria of Fasciola hepática L. Parasitology, 1966, 56, 431-456.; Wilson, L. R., Good, R. T., Panaccio, M., Wijffels, G. L., Sandeman, R. M., Spithill, T. W, Fasciola hepatica: Characterization and Cloning of the Major Cathepsin B Protease Secreted by Newly Excysted Juvenile Liver Fluke. Experimental Parasitology 1998, 88, 85-94).
After excystment, NEJs were distributed into a 24 well tissue culture plate at a density of 25 parasites per well containing 1 mL of pre-warmed NEJs culture media. Compounds were added to respective wells and NEJ/compound co-cultures were incubated at 37° C. in an atmosphere containing 5% CO2 for 72 hours at a final concentration of 10 μM.
F. hepatica NEJs (25 per well) were incubated with the three compounds at a concentration of 10 μM (in 0.1% DMSO) and cultured for 72 hrs at 37° C. in an atmosphere containing 5% CO2. Control wells (25 NEJs per well) included those containing 0.1% DMSO (solvent) and RMPI (media) as negative controls or 10 μM Triclabendazole (0.1% DMSO, as positive control, labelled “Tbz” (Comp. 3). After 72 hrs, all NEJs were scored for phenotype and motility metrics. For each treatment, an average of both phenotype and motility score was calculated based on the individual parasite scores (across two independent replicates), wherein a higher score indicates lower worm activity. SD is reported on the bar chart.

E. coli ATCC 25922 = experiment: In vitro antibacterial activity; type: cell-based; conditions: Escherichia coli, ATCC25922
S. mansoni schistosomula = experiment: 72 hours schistosomula drug screen; type: cell-based, Schistosoma mansoni; conditions: for Selectivity Index Schistosomula: HepG2 CC50 over schistosomula EC50; for EC50: Schistosoma mansoni
Procedure: Biological Screening 72 Hours Schistosomula Drug Screen […] G. Colley, […], Schistosoma mansoni: simplified method for the production of schistosomules., Exp. Parasitol. 35 (1974) 44-51. Newly transformed schistosomula were prepared for 72 hour high throughput screening (HTS) in 384-well black-sided microtiter plates (Perkin Elmer, MA, USA) as described in M. Nur-e-alam, M. Yousaf, […]. Bari, H. A. Ghabbour, […]. Ho, A. J. […], Neoclerodane Diterpenoids from […], Teucrium […]. Nat. […] The data obtained in this manner is shown in Table 1 in the columns labelled “Phenotype”, “Motility” and “Schistosomula average”.

S. epidermidis NTCT11077 = experiment: In vitro antibacterial activity; type: cell-based; conditions: Staphylococcus epidermidis
S. aureus ATCC 29213 = experiment: In vitro antibacterial activity; type: cell-based; conditions: Staphylococcus aureus, ATCC29213
MRSA ATCC 33591 = experiment: In vitro antibacterial activity; type: cell-based; conditions: Staphylococcus aureus
S. mansoni adult worms = experiment: Adult worm drug screen (WHO scoring, WormassayGP2); type: cell-based, Schistosoma mansoni; conditions: for Selectivity Index Adult: HepG2 CC50 over adult worm EC50; for EC50: Schistosoma mansoni, adult worms
Text: Mice (MF-1 mice, Harlan, UK), infected 7 weeks previously with 180 cercaria, were euthanised with an intraperitoneal injection of phenobarbital/heparin solution. Adult worms were recovered by perfusion of the portal system and subjected to drug screening as previously described in Padalino G, Ferla S, Brancale A, Chalmers I W, Hoffmann K F. Int J Parasitol Drugs Drug Resist. 2018 December; 8(3):559-570; in Whiteland H L, Chakroborty A, Forde-Thomas J E, Crusco A, Cookson A, Hollinshead J, Fenn C A, Bartholomew B, Holdsworth P A, Fisher M, Nash R J, Hoffmann K F. Int J Parasitol Drugs Drug Resist. 2018 December; 8(3):465-474; and in Crusco A, Bordoni C, Chakroborty A, Whatley K C L, Whiteland H, Westwell A D, Hoffmann K F. Eur J Med Chem. 2018 May 25; 152:87-100. The data obtained in this manner is shown in Table 1 in the columns labelled “Adult worm”.
Regarding the quantification of drug treatment on adult worms (e.g. decreased activity, paralysis or sluggishness), two different approaches were used, as described below. Where egg deposition was noticed, eggs were removed and counted using a Sedgewick rafter slide.
Adult worms were scored using the standardized microscopic WHO-TDR scoring system previously described by Ramirez, B., Bickle, Q., Yousif, F., Fakorede, F., Mouries, M.-A., Nwaka, S. in Schistosomes: Challenges in compound screening, Expert Opin Drug Discov. 2007 October; 2(s1): S53-61. This scoring system (0-4) identifies changes in worm movement and is defined according to the following scoring matrix: 0=no movement, 1=no movement with visible gut peristalsis, 2=minimal movement (occasional movement from anterior or posterior end of the worm), 3=slow continuous movement and 4=normal movement.
A digital image processing-based system was also used to assess parasite motility after drug treatment and is a modification of methods previously described by Marcellino C., Gut, J., Lim, K., Singh R., McKerrow, L. and Sakanari, J. WormAssay: a novel computer application for whole-plate motion-based screening of macroscopic parasites. PLoS Negl Trop Dis. 2012 January:6(1):e1494. This allowed for objective verification of the WHO method described above. The data obtained with this quantification method is shown in Table 1 in the columns labelled “Adult worm”.

[2] = test system: M. smegmatis mc^2 15 ATCC 700084; experiment: In vitro antibacterial activity; type: cell-based, Mycobacterium smegmatis; conditions: Mycolicibacterium smegmatis, ATCC700084
B. cereus = experiment: In vitro antibacterial activity; type: cell-based; conditions: Bacillus cereus
[3] = test system: Pseudomonas aeruginosa ATCC 27853; experiment: In vitro antibacterial activity; type: cell-based; conditions: ATCC27853
MRSA USA 300 = experiment: In vitro antibacterial activity; type: cell-based; conditions: Staphylococcus aureus
MRSA EM RSA = experiment: In vitro antibacterial activity; type: cell-based; conditions: Staphylococcus aureus
Text: In vitro Determination of Antibacterial Activity
Scientific Reports 8 (1), 2018. Bacterial strains of Enterococcus faecalis—ATCC 29212, NCTC 12201, ATCC 51299; Streptococcus pneumoniae—ATCC 49619, 18778, 21394, 21395; Haemophilus influenza—ATCC 49766, 18391, 17428; Staphylococcus aureus—NCTC 12493, ATCC BAA-077, ATCC 700698, 11051; used for testing the compounds, as previously described in “Clinical laboratory testing and in vitro diagnostics test systems—Susceptibility testing of infectious agents and evaluation of performance of antimicrobial susceptibility devices—Part 1: Reference methods for testing the in vitro activity of antimicrobial agentes against bacteria involved in infectious diseases, ISO/FDIS 20776-1:2006(E). All the procedures were carried out in a biosafety containment level 2.

[4] = Metabolic stability in mouse liver microsomes; conditions: liver microsomes
[5] = Semi thermodynamic solubility; conditions: thermodynamic from solid
[6] = Mouse pharmacokinetics, oral cassette dosing; conditions: male, C57/BL6, mouse, plasma, po, 2.5 mg/kg
Procedure: Non-compartmental mouse pharmacokinetics (Male C57/BL6 Mouse, Fasted; 3 mice per group) were determined after oral administration of a nominal dose of 2.5 mg/kg of these formulations in cassettes (5 compounds/group) according to the protocols employed by WuXi (https://www.wuxiapptec.com; the CRO that conducted these studies).

[7] = E. coli ATCC 25922, read-out: MIC90
[8] = average of phenotype and motility, read-out: EC50 Schistosomula average
[9] = schistosomula, 72 hour culture, read-out: EC50 Motility
[10] = M. smegmatis mc^2 15 ATCC 700084, read-out: MIC90
[11] = schistosomula, 72 hour culture, read-out: EC50 Phenotype

SMILES | Motility (M) Mean score [1] | Phenotype (P) Mean score [1] | Selectivity Index Schistosomula (S. mansoni schistosomula) | EC50 (S. mansoni schistosomula; [8]) [nM] | EC50 (S. mansoni schistosomula; [9]) [nM] | MIC90 (S. aureus ATCC 29213) [µg/mL] | Selectivity Index Adult (S. mansoni adult worms) | EC50 (S. mansoni adult worms) [nM] | MIC90 (E. coli ATCC 25922) [µg/mL] | EC50 (S. mansoni schistosomula; [11]) [nM] | MIC90 [2] [µg/mL] | MIC90 (S. epidermidis NTCT11077; NTCT11077) [µg/mL] | MIC90 (B. cereus) [µg/mL] | MIC90 ([3]; Pseudomonas aeruginosa) [µg/mL] | further results
CSc1nc2cc(Cl)c(Oc3cccc(Cl)c3Cl)cc2[nH]1 [Comp. 3, triclabendazole, reference compound] | 4.72 | 4.72 | – | – | – | – | – | – | – | – | – | – | – | – | –
O=[N+]([O-])c1ccc2nc(Nc3cccc(C(F)(F)F)c3)c(Nc3cccc(C(F)(F)F)c3)nc2c1 [Compound 10, 6-nitro-N^2, N^3-bis(3-(trifluoromethyl)phenyl)quinoxaline-2,3-diamine] | 2.71 | 2.76 | 12 | 480 | 570 | 7.81 (≈ 15.8 µM) | 836 | 7 | – | – | – | – | – | – | MIC90 (E. coli ATCC 25922; [7]): > 125 µg/mL; MIC90 (S. epidermidis NTCT11077; S. epidermidis NTCT11077, read-out: MIC90): > 125 µg/mL; MIC90 (MRSA ATCC 33591): > 125 µg/mL; MIC90 [2, 10]: > 125 µg/mL; MIC90 (B. cereus; B. cereus, read-out: MIC90): > 125 µg/mL; MIC90 ([3]; Pseudomonas aeruginosa ATCC 27853, read-out: MIC90): > 125 µg/mL; MIC90 (MRSA USA 300): > 125 µg/mL; MIC90 (MRSA EM RSA): > 125 µg/mL
O=[N+]([O-])c1ccc2nc(NCc3ccccc3)c(NCc3ccccc3)nc2c1 [Compound 13, N^2, N^3-dibenzyl-6-nitroquinoxaline-2,3-diamine] | 3.14 | 3.14 | 4 | 2920 | 2640 | > 125 | – | – | > 125 | 3190 | > 125 | – | – | – | –
O=[N+]([O-])c1ccc2nc(NCCc3ccccc3)c(NCCc3ccccc3)nc2c1 [Compound 14, 6-nitro-N^2, N^3-diphenethylquinoxaline-2,3-diamine] | 4.00 | 4.27 | – | – | 1470 | – | – | – | – | 2200 | – | – | – | – | MIC90 (E. coli ATCC 25922; [7]): > 125 µg/mL; MIC90 (S. aureus ATCC 29213; S. aureus ATCC 29213, read-out: MIC90): > 125 µg/mL; MIC90 [2, 10]: 31.2 µg/mL (≈ 75.6 µM)
Nc1ccc2nc(Nc3ccc(Cl)c(Cl)c3)c(Nc3ccc(Cl)c(Cl)c3)nc2c1 [Compound 15, N^2, N^3-bis(3,4-dichlorophenyl)quinoxaline-2,3,6-triamine] | 4.86 | 5.09 | 7 | – | 3250 | – | – | – | – | 3510 | – | – | – | – | –
Clc1ccc(Nc2nc3ccc(N4CCCC4)cc3nc2Nc2ccc(Cl)c(Cl)c2)cc1Cl [Compound 16, N^2, N^3-bis(3,4-dichlorophenyl)-6-(pyrrolidin-1-yl)quinoxaline-2,3-diamine] | 2.84 | 2.95 | – | – | > 10000 | 15.6 (≈ 30.1 µM) | – | – | > 125 | > 10000 | > 125 | > 125 | > 125 | > 125 | MIC90 (MRSA ATCC 33591): 31.2 µg/mL (≈ 60.2 µM); MIC90 (MRSA USA 300): 62.5 µg/mL (≈ 120 µM); MIC90 (MRSA EM RSA): 62.5 µg/mL (≈ 120 µM)
CC(=O)Nc1ccc2nc(Nc3ccc(Cl)c(Cl)c3)c(Nc3ccc(Cl)c(Cl)c3)nc2c1 [Compound 17, N-(2,3-bis((3,4-dichlorophenyl)amino)quinoxalin-6-yl)acetamide] | – | – | 4 | 2350 | 2090 | 62.5 (≈ 123 µM) | 12 | 700 | > 125 | 2600 | > 125 | < 62.5 | < 62.5 | > 125 | –
CCCCCC(=O)Nc1ccc2nc(Nc3ccc(Cl)c(Cl)c3)c(Nc3ccc(Cl)c(Cl)c3)nc2c1 [Compound 18, N-(2,3-bis((3,4-dichlorophenyl)amino)quinoxalin-6-yl)hexanamide] | 4.05 | 4.09 | 46 | – | 1800 | 62.5 (≈ 111 µM) | 203 | 320 | > 125 | 1020 | > 125 | > 125 | 125 (≈ 222 µM) | > 125 | half-life at 1 μM [4]: 0.618 h; microsomal CLint at 1 μM [4]: 37.4 µL/min/mg; solubility thermodynamic [5]: 15.5 µM (≈ 8.73 µg/mL); AUC(0-t) [6]: 68.2 ng·h/mL; Cmax [6]: 16.4 ng/mL; MRT last [6]: 3.86 h; Tmax [6]: 4 h
COC(=O)C1=C(C)NC(C)=C(C(=O)OCCN(C)Cc2ccccc2)C1c1cccc([N+](=O)[O-])c1 (stereo not shown) [Nicardipine, reference compound] | – | – | – | – | – | – | – | – | – | – | – | – | – | – | solubility thermodynamic [5]: 35.4 µM (≈ 17 µg/mL)
